Experimental findings from US9199975B2, “Biaryl imidazole derivatives for regulating CYP17” (Asana Biosciences, LLC, priority 2011, dated 2015) are described below.

Where only a bound is given, the exact number is not on record here.

For this test, the target named is T1, human CYP17 (Homo sapiens, UniProt P05093).
T1 sequence (P05093 1-508): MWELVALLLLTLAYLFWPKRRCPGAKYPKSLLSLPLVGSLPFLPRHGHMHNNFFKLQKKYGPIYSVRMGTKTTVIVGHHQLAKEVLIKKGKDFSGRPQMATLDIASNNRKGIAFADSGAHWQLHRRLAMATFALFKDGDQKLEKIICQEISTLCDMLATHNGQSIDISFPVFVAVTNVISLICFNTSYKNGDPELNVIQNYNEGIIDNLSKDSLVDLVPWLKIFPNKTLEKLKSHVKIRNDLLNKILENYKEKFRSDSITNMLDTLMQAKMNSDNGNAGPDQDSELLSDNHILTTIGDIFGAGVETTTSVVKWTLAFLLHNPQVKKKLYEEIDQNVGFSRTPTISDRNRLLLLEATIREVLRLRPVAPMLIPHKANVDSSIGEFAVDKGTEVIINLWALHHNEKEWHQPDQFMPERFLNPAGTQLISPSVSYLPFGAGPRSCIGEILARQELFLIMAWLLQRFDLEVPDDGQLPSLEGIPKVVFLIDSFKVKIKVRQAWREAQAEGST
The test can be described thus: Cell-based human CYP17 inhibition assay, H295R adrenocortical carcinoma cells. On the set-up: H295R Adrenocortical carcinoma cells [NCI-H295A, ATCC Number CRL-2128, American Type Culture Collection; host or cells: H295R adrenocortical carcinoma cells. The settings on record: 16 hours at 37° C., read-out: CYP17 (human H295R adrenal cells). The method, then:
Cell-Based Human CYP17 Inhibition Assay
A. Materials • 1. H295R Adrenocortical Carcinoma Cells and Growth Media: The media for the H295R Adrenocortical carcinoma cells [NCI-H295A, ATCC Number CRL-2128, American Type Culture Collection, Manassas, Va., US] (500 mL) was a DMEM:F12 Mix 1:1 with 5% […] BD Nu Serum; 1% (5 mL) ITS+Premix [BD Biosciences] and 1% Penstrep. • 2. LNCap-CYP17 Cells and Growth Media: Full length hCYP17a1 gene (NCBI Reference Sequence: NM_000102.3) was cloned in pCDNA3.1(+) vector between HindIII and XhoI site. The pCDNA3.1(+) vector contains the Neomycin resistance gene and was used for selection of stable cell line. The hCYP17a1 containing pCDNA3.1(+) was transfected into LNCap cells to create the LNCap-CYP17 cell line. The media for the LNCaP-CYP17 cells was RPMI 1640, 10% FBS, 1% PenStrep, Geneticin 400 μg/mL.
The H295R cells or LNCaP-hCYP17 cells were subcultured and 30,000 cells per well were seeded in a poly-d lysine plate and incubated overnight at 37° C. The next day the media was removed and 200 µL of fresh media with ^3H3-17α-hydroxy-pregnenolone (1:1000) was added. 50 μL of serially diluted compounds from a 5× plate (5 times the final desired concentration) was added. The working concentration range for active, new compounds started from a high concentration of […] with 3-fold serial dilutions generating up to 10 concentrations. The serial dilution in the 100× plate (in DMSO) and the stamping of a 5× plate (in media) from the 100× plate were carried out using a TECAN liquid handling device.
The plates were incubated overnight (16 hours) at 37° C. After 16 hours, the media was removed (approximately 220 μL) and an equal amount of chloroform was added, mixed and incubated for 30 minutes at 4 degrees. The plate was centrifuged at 4000 rpm for 15 minutes at 4° C., following which the top aqueous layer was carefully removed and added into a new deep well plate. An equal volume of activated 5% charcoal was added, mixed and incubated for 30 minutes at 4° C. The plate was then centrifuged at 4000 rpm for 15 minutes at 4° C. and the top layer carefully separated, avoiding any charcoal contamination, and placed in a white, clear bottom plate (plate cat #3610, Corning Life Sciences). An equal volume of Microscint™ 40 was added and mixed well. Following the incubation for 30 minutes, readings for the radiotracer were taken using a Microbeta® trilux.
With `CCC(c1ccc(-c2ccc(COCOC)cc2)cn1)n1ccnc1` (centres unmarked) [Example 11, 2-(1-(1H-imidazol-1-yl)propyl)-5-(4-((methoxymethoxy)methyl)-phenyl)pyridine], the IC50 was 50 to 200 nM.

Consider `CCC(c1ccc(-c2ccccc2C#N)cn1)n1ccnc1` (centres unmarked) [Example 18, 2-(6-(1-(1H-imidazol-1-yl)propyl)pyridin-3-yl)benzonitrile], for which the IC50 lay in the range of 201 to 10000 nM.

In the case of `CCC(c1ccc(-c2ccc(OC)cc2)cn1)n1ccnc1` (centres unmarked) [Example 47, 2-(1-Imidazol-1-yl-propyl)-5-(4-methoxy-phenyl)-pyridine], the IC50 lay within 50 to 200 nM.

Regarding `CCC(c1ccc(-c2ccc(O)cc2)cn1)n1ccnc1` (centres unmarked) [Example 50, 4-[6-(1-Imidazol-1-yl-propyl)-pyridin-3-yl]-phenol], the IC50 was below 50 nM.

Consider `CCC(c1cnc(-c2cn[nH]c2)s1)n1ccnc1` (centres unmarked) [Example 44, 5-(1-Imidazol-1-yl-propyl)-2-(1H-pyrazol-4-yl)-thiazole], for which the IC50 fell in the range of 50 to 200 nM.

As to `CC(c1ccc(-c2ccc(=O)n(C)c2)s1)n1ccnc1` (centres unmarked) [Example 20, 5-(5-(1-(1H-imidazol-1-yl)ethyl)thiophen-2-yl)-1-methylpyridin-2(1H)-one], the IC50 was below 50 nM.

Take `COc1ccc(-c2ncc(C(C)n3ccnc3)s2)cn1` (centres unmarked) [Example 58, 5-[5-(1-Imidazol-1-yl-ethyl)-thiazol-2-yl]-2-methoxy-pyridine]: the IC50 was 50 to 200 nM.

Regarding `CCC(c1ccc(-c2ccc(OC)cc2)o1)n1ccnc1` (centres unmarked) [Example 27, 1-{1-[5-(4-Methoxy-phenyl)-furan-2-y]-propyl}-1H-imidazole], the IC50 is below 50 nM.

`CCC(c1ccc(-c2cccc(OC)c2)cn1)n1ccnc1` (centres unmarked) [Example 7, 2-(1-(1H-imidazol-1-yl)propyl)-5-(3-methoxyphenyl)pyridine]: the IC50 was below 50 nM.

`COc1ccc(-c2ccc(C(C)(C)n3ccnc3)s2)cc1` [Example 24, 1-(2-(5-(4-methoxyphenyl)-thiophen-2-yl)-propan-2-yl)-1H-imidazole]: the IC50 was below 50 nM.

On to `CCc1cc(F)ccc1-c1ncc(C(CC)n2ccnc2)s1` (centres unmarked) [Example 46, 2-(2-Ethyl-4-fluoro-phenyl)-5-(1-imidazol-1-yl-propyl)-thiazole], for which the IC50 is below 50 nM.

On to `CCC(c1ccc(-c2cccc(O)c2)cn1)n1ccnc1` (centres unmarked) [Example 8, 3-(6-(1-(1H-imidazol-1-yl)propyl)pyridin-3-yl)phenol], for which the IC50 was below 50 nM.

On to `CCC(c1ccc(-c2ccc(F)cc2)cn1)n1ccnc1` (centres unmarked) [Example 29, 5-(4-Fluoro-phenyl)-2-(1-imidazol-1-yl-propyl)-pyridine], for which the IC50 is below 50 nM.

On to `CCC(c1ccc(-c2ccccc2OC)cn1)n1ccnc1` (centres unmarked) [Example 56, 2-(1-Imidazol-1-yl-propyl)-5-(2-methoxy-phenyl)-pyridine], for which the IC50 lay within 50 to 200 nM.

Take `CCC(c1ccc(-c2ccccc2O)cn1)n1ccnc1` (centres unmarked) [Example 37, 2-[6-(1-Imidazol-1-yl-propyl)-pyridin-3-yl]-phenol]: the IC50 is below 50 nM.

As for `CCC(c1ccc(-c2ccc(C(=O)O)cc2)cn1)n1ccnc1` (centres unmarked) [Example 6, 4-(6-(1-(1H-imidazol-1-yl)propyl)pyridin-3-yl)benzoic acid], the IC50 was 201 to 10000 nM.

For the molecule `CC(c1ccc(-c2ccc(F)cc2)cn1)n1ccnc1` (centres unmarked) [Example 12, 2-(1-(1H-imidazol-1-yl)ethyl)-5-(4-fluorophenyl)pyridine], the IC50 was below 50 nM.

Turning to `CCC(c1ccc(-c2cccc(C#N)c2)cn1)n1ccnc1` (centres unmarked) [Example 53, 3-[6-(1-Imidazol-1-yl-propyl)-pyridin-3-yl]-benzonitrile], the IC50 was 50 to 200 nM.

Regarding `CCC(c1cnc(-c2ccc(NC(=O)OC(C)(C)C)cc2)s1)n1ccnc1` (centres unmarked) [Example 31, {4-[5-(1-Imidazol-1-yl-propyl)-thiazol-2-yl]-phenyl}-carbamic acid tert-butyl ester], the IC50 was below 50 nM.

For `COc1ccc(-c2ccc(C(CC(C)C)n3ccnc3)s2)cc1` (centres unmarked) [Example 39, 1-{1-[5-(4-Methoxy-phenyl)-thiophen-2-yl]-3-methyl-butyl}-1H-imidazole], the IC50 is below 50 nM.

For `CC(c1ccc(-c2ccc(N)cc2)cn1)n1ccnc1` (centres unmarked) [Example 14, 4-(6-(1-(1H-imidazol-1-yl)ethyl)pyridin-3-yl)aniline], the IC50 fell in the range of 201 to 10000 nM.

`COc1ccc(-c2cccnc2C(C)n2ccnc2)cc1` (centres unmarked) [Example 66, 2-(1-(1H-imidazol-1-yl)ethyl)-3-(4-methoxyphenyl)-pyridine]: the IC50 was below 50 nM.

Take `CC(c1ccc(-c2ccc(O)cc2)cn1)n1ccnc1` (centres unmarked) [Example 16, 4-(6-(1-(1H-imidazol-1-yl)ethyl)pyridin-3-yl)phenol]: the IC50 lay in the range of 50 to 200 nM.

On to `CC(c1ccc(-c2ccc(O)cc2)s1)n1ccnc1` (centres unmarked) [Example 49, 4-[5-(1-Imidazol-1-yl-ethyl)-thiophen-2-yl]-phenol], for which the IC50 was below 50 nM.

For the molecule `CCC(c1ccc(-c2ccc(NC(C)=O)cc2)cn1)n1ccnc1` (centres unmarked) [Example 43, N-{4-[6-(1-Imidazol-1-yl-propyl)-pyridin-3-yl]-phenyl}-acetamide], the IC50 fell in the range of 50 to 200 nM.

For the molecule `CCC(c1cccc(-c2ccc(OC)cc2)n1)n1ccnc1` (centres unmarked) [Example 38, 2-(1-Imidazol-1-yl-propyl)-6-(4-methoxy-phenyl) pyridine], the IC50 fell in the range of 50 to 200 nM.

For the molecule `CC(c1cnc(-c2ccc(F)cc2F)s1)n1ccnc1` (centres unmarked) [Example 28, 2-(2,4-Difluoro-phenyl)-5-(1-imidazol-1-yl-ethyl)-thiazole], the IC50 is below 50 nM.

For the molecule `CC(c1ccc(-c2ccccc2F)cn1)n1ccnc1` (centres unmarked) [Example 40, 5-(2-Fluoro-phenyl)-2-(1-imidazol-1-yl-ethyl)-pyridine], the IC50 lay in the range of 50 to 200 nM.

`CC(C)(c1ccc(-c2ccc(O)cc2)cn1)n1ccnc1` [Example 52, 4-[6-(1-Imidazol-1-yl-1-methyl-ethyl)-pyridin-3-yl]-phenol]: the IC50 is 50 to 200 nM.
